Laboratory results taken from ChEMBL document CHEMBL1201862, “PubChem BioAssay data set” (2004).
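Values below derive from 48-hour exposures of cells grown in 96-well plates, with endpoints linearly interpolated between the two concentrations bracketing the appropriate inhibition level. GI50 marks 50% less growth.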 Calls of active or inactive are those of the source. No stated cut-off is given here; in the data, active = GI50 up to about 1.1 µM and inactive = higher.

Key:
Assay in all cases: growth of human tumour cells (NCI), 48 h
[1] = tested on: HCC 2998
[2] = tested on: SF-268
[3] = tested on: CAKI-1
[4] = tested on: TK-10
[5] = tested on: SN12C
[6] = tested on: RXF 393
[7] = tested on: SW-620
[8] = tested on: U-251
[9] = tested on: HL-60
[10] = tested on: RPMI-8226
[11] = tested on: UACC-257
[12] = tested on: SF-295
[13] = tested on: K562
[14] = tested on: A498
[15] = tested on: CCRF-CEM
[16] = tested on: UACC-62
[17] = tested on: NCI-H226
[18] = tested on: LOX IMVI
[19] = tested on: OVCAR-5

Measured: GI50

Fc1ccc(C2SCc3nc4ccccc4n32)cc1F (stereo not drawn)
inactive: [1] 37.6 µM | [2] 50.4 µM | [3] 43.1 µM | [4] 26 µM | [5] 41.7 µM | [6] 24.2 µM | [7] 39.4 µM | [8] 48.2 µM | [9] 7.8 µM | [10] 13.3 µM | [11] 42.1 µM | [12] 40.5 µM | [13] 24.2 µM | [14] 36.2 µM | [15] 34.1 µM | [16] 20.7 µM

O=C(CC1(O)C(=O)Nc2ccc([N+](=O)[O-])cc21)c1ccncc1 (stereo not drawn)
inactive: [17] 83 µM | [1] 67 µM | [2] 36.7 µM | [4] > 100 µM | [5] 43.6 µM | [6] 14.8 µM | [18] 15.5 µM | [19] > 100 µM | [7] 20.5 µM | [8] 20.1 µM | [9] 19.3 µM | [10] 25.2 µM | [11] 17.9 µM | [12] 80.2 µM | [13] 20.5 µM | [14] > 100 µM | [15] 29 µM | [16] 29.2 µM

COC(=O)CCC(NC(=S)N/N=C(\C)c1ccco1)C(=O)OC (stereo not drawn)
inactive: [17] > 100 µM | [1] > 100 µM | [2] > 100 µM | [4] > 100 µM | [5] > 100 µM | [6] > 100 µM | [18] > 100 µM | [19] > 100 µM | [7] > 100 µM | [8] > 100 µM | [9] > 100 µM | [11] > 100 µM | [12] > 100 µM | [13] > 100 µM | [14] > 100 µM | [15] > 100 µM | [16] > 100 µM

NC1CC(=O)c2c1sc(Cl)c2Cl (stereo not drawn)
inactive: [1] > 100 µM | [2] > 100 µM | [3] > 100 µM | [4] > 100 µM | [5] > 100 µM | [6] > 100 µM | [19] > 100 µM | [7] > 100 µM | [8] > 100 µM | [9] > 100 µM | [10] > 100 µM | [11] > 100 µM | [13] > 100 µM | [14] > 100 µM | [15] > 100 µM | [16] > 100 µM

C[Si](C)(C)/C(Br)=C\CCN1C(=O)CCC1=O
inactive: [17] > 100 µM | [1] > 100 µM | [2] > 100 µM | [3] > 100 µM | [4] > 100 µM | [5] > 100 µM | [6] > 100 µM | [18] > 100 µM | [19] > 100 µM | [7] > 100 µM | [8] > 100 µM | [9] > 100 µM | [11] > 100 µM | [12] > 100 µM | [13] > 100 µM | [14] > 100 µM | [15] > 100 µM | [16] > 100 µM

O=C(CSSCC(=O)OCCS(=O)(=O)Nc1ccc(Br)cc1)OCCS(=O)(=O)Nc1ccc(Br)cc1
inactive: [1] 7.8 µM | [2] 13.9 µM | [3] 2.83 µM | [4] 20.7 µM | [5] 18.7 µM | [6] 3.23 µM | [18] 7.18 µM | [19] 13.9 µM | [7] 8.45 µM | [8] 21.7 µM | [9] 14.7 µM | [10] 10 µM | [11] 9.46 µM | [12] 12.2 µM | [13] 10.4 µM | [14] 11.8 µM | [15] 7.66 µM | [16] 13 µM

Cc1ccccc1-n1c(=O)sc2c(=O)n(-c3ccccc3)c(=S)[nH]c21
inactive: [17] > 100 µM | [1] > 100 µM | [2] > 100 µM | [3] > 100 µM | [5] > 100 µM | [6] > 100 µM | [19] 95.5 µM | [7] > 100 µM | [8] > 100 µM | [9] > 100 µM | [10] > 100 µM | [11] > 100 µM | [12] > 100 µM | [13] > 100 µM | [14] > 100 µM | [15] 47.3 µM | [16] > 100 µM

O=C1c2ccc(O)c(O)c2C(=O)c2c(O)ccc(O)c21 [QUINALIZARIN]
inactive: [17] 22 µM | [1] 23.3 µM | [2] 26.6 µM | [3] 6.05 µM | [4] 33.8 µM | [5] 24 µM | [6] 26.1 µM | [18] 18.2 µM | [19] 28.4 µM | [7] 28.2 µM | [8] 34.2 µM | [10] 28.2 µM | [11] 20.5 µM | [12] 27.1 µM | [13] 26.5 µM | [14] 26.3 µM | [15] 20.2 µM | [16] 21.4 µM
